Where two headings read alike, the source gives them in different places.
Key:
HeLa = assay: MTT cell viability after iridium complex treatment, with or without light (photodynamic cancer cell killing); assay type: cell-based; conditions: for IC50: HeLa
Protocol: (§1) After seeding 1.5×10^4 cells in a 96-well plate, the cells were cultured overnight at 37° C. under 5% carbon dioxide conditions. Afterwards, the cells were treated with the iridium complex and cultured for 2 hours, after which the medium was replaced with fresh medium. After irradiated for 30 seconds with a 1 sun simulator (100 mW/cm2, PEG-L01, Peccell), cells were cultured for an additional 24 hours in a humidified incubator containing 5% carbon dioxide at 37° C. Cell viability was measured using the MTT (tetrazolium salt (3-(4,5-dimethylthiazol-2-yl)-2,5-diphenyltetrazolium bromide)) assay. MTT reagent was added to each well and cultured for 4 hours, and then the formazan crystals produced in the surviving cells were dissolved in DMSO, followed by measurement of the absorbance at 570 nm.
(§2) When the same light (1 sun, 3 J/cm^2) was irradiated to cancer cells administered with the HBrb, B2, and TIr3 iridium complexes as respective photosensitizers, the IC50 values for the respective photo sensitizers were first calculated, and the results are shown in Table 2 below.
(§3) Data indicating the inherent toxicity may be determined by cell viability under conditions without light application (hv−). The experimental results in FIGS. 6A-6F show the cell viability for each cell under conditions where no light was given, where M indicates the cell line MDA-MB-231, A indicates the cell line A549, H indicates the cell line HeLa, C indicates the cell line Caco-2, and P indicates the cell line PANC-1, respectively. FIGS. 6A, 6B, and 6C represent the cell viability when each substance was administered to each cell line for 2 hours, replaced with new media, and then cultured for an additional 24 hours. FIG. 6D is a graph of cell viability when TIr3 and B2 were administered at different concentrations, and at the concentration of a combination of the two (TIr3+B2), to PANC-1, pancreatic cancer cells. […] FIGS. 6E and 6F show the results of identifying the change in the cell viability in the MDA-MB-231 breast cancer cell line under conditions with TIr3 only and the TIr3+B2 combination depending on the presence of light irradiation.

PANC-1 = assay: as above; assay type: cell-based; conditions: for cell viability (hv−): FIG. 6D, especially 16 and 32 μM
Protocol: as §1, §2, §3

A549 = assay: as above; assay type: cell-based
Protocol: as §1, §2, §3

[1] = Dynamic light scattering of Kolliphor HS15 micelles; assay type: physicochemical; conditions: 1 mg/mL in distilled water using 5% Kolliphor HS15
Protocol: FIGS. 7A-7E illustrates schematic diagrams of micellized synergistic combination (SY) of TIr3 and B2 using Kolliphor HS 15 surfactant (FIG. 7A). As a result, when TIr3, B2, and 0.5 mg/ml TIr3+0.5 mg/ml B2 (SY) materials are dissolved in distilled water at a concentration of 1 mg/mL using 5% Kolliphor HS15, it was found via dynamic light scattering (DLS) that nanoparticles with a size of approximately 10 nm were formed (FIG. 7B). In addition, the size of the SY combination was reidentified through transmission electron microscopy (TEM) (FIG. 7C). […] After four administrations of the drug, the results of hepatotoxicity (alanine aminotransferase, ALT) on the 17th day are shown in FIG. 7E.

Caco-2 = assay: MTT cell viability after iridium complex treatment, with or without light (photodynamic cancer cell killing); assay type: cell-based
Protocol: as §1, §2, §3

MDA-MB-231 = assay: as above; assay type: cell-based
Protocol: as §1, §2, §3

MKN45 = assay: as above; assay type: cell-based
Protocol: as §1, §2

[2] = light 1 sun, 3 J/cm^2 (100 mW/cm2, 30 s), 2 h treatment, 24 h culture, read-out: IC50 (hv+)
[3] = light 1 sun, 3 J/cm^2, read-out: IC50 (hv+)
[4] = no light, read-out: IC50 (hv−), IC50, dark

| SMILES | IC50 (HeLa; [2]) | IC50 (PANC-1; [2]) | IC50 (A549; [2]) | nanoparticle size (DLS) [1] | IC50 (Caco-2; [3]) | IC50 (Caco-2; [4]) | IC50 (HeLa; [4]) | inherent toxicity of photosensitizer (HeLa; up to 32 μM, no light) | cell viability (hv−) (PANC-1; no light) | IC50 (PANC-1; [4]) | IC50 (MDA-MB-231; [3]) | IC50 (MDA-MB-231; [4]) | IC50 (A549; [4]) | IC50 (MKN45; [3]) | IC50 (MKN45; [4]) |
| --- | --- | --- | --- | --- | --- | --- | --- | --- | --- | --- | --- | --- | --- | --- | --- |
| CC(=O)C=C(C)[O][Ir]([c]1c(-c2cc(C)c3ccccc3n2)sc2ccccc12)[c]1c(-c2cc(C)c3ccccc3n2)sc2ccccc12 [HIra] | > 32 µM | > 32 µM | > 32 µM | – | – | – | – | – | – | – | – | – | – | – | – |
| CC(=O)C=C(C)[O][Ir]([c]1c(-c2cc(C(F)(F)F)c3ccccc3n2)sc2ccccc12)[c]1c(-c2cc(C(F)(F)F)c3ccccc3n2)sc2ccccc12 [FIra] | > 32 µM | > 32 µM | > 32 µM | – | – | – | – | – | – | – | – | – | – | – | – |
| Cc1cc(-c2sc3ccccc3[c]2[Ir]([O]C(=O)c2ncccc2OCCCN2CCOCC2)[c]2c(-c3cc(C)c4ccccc4n3)sc3ccccc23)nc2ccccc12 [Example B2] | 2.4 ± 0.08 µM | 11.7 ± 2.02 µM | 3.8 ± 1.3 µM | approximately 10 nm | 0.68 ± 0.01 µM | > 32 µM | > 32 µM | non-toxic | excellent biocompatibility | > 32 µM | 0.89 ± 0.1 µM | > 32 µM | > 32 µM | 0.86 ± 0.03 µM | > 32 µM |
| [Cl-].c1ccc(-c2ccc3ccccc3n2)[c]([Ir+][c]2ccccc2-c2ccc3ccccc3n2)c1.c1ccc(-c2ccccn2)nc1 [TIr3] | 1.53 ± 0.07 µM | 3.86 ± 0.18 µM | 3.12 ± 0.2 µM | approximately 10 nm | 0.89 ± 0.09 µM | 7.88 ± 0.13 µM | 8.77 ± 0.73 µM | – | low cell viability | 10.7 ± 0.39 µM | 0.89 ± 0.02 µM | 7.51 ± 0.84 µM | 19.8 ± 1.99 µM | 0.55 ± 0.06 µM | 16.3 ± 0.17 µM |
| O=C([O][Ir]([c]1c(-c2cc(C(F)(F)F)c3ccccc3n2)sc2ccccc12)[c]1c(-c2cc(C(F)(F)F)c3ccccc3n2)sc2ccccc12)c1ncccc1O [FIrp] | > 32 µM | > 32 µM | > 32 µM | – | – | – | – | – | – | – | – | – | – | – | – |
